Test results as given in ChEMBL document CHEMBL1201862, “PubChem BioAssay data set” (2004).
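Cells were grown in 96-well plates and exposed to each compound for 48 hours at five concentrations; endpoints were interpolated linearly between bracketing concentrations, or set to the highest concentration if not reached. GI50: concentration for 50% inhibition of growth.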 Calls of active or inactive are those of the source. No stated cut-off is given here; in the data, active = GI50 up to about 1.1 µM and inactive = higher.

How the values were obtained:
Experiment in all cases: growth of human tumour cells (NCI), 48 h
LOX IMVI = tested on: LOX IMVI
OVCAR-3 = tested on: OVCAR-3
UACC-62 = tested on: UACC-62
COLO 205 = tested on: COLO 205
OVCAR-5 = tested on: OVCAR-5
TK-10 = tested on: TK-10
HCC 2998 = tested on: HCC 2998
HL-60 = tested on: HL-60
SF-268 = tested on: SF-268
MDA-MB-435 = tested on: MDA-MB-435
HOP-62 = tested on: HOP-62
M14 = tested on: M14
SK-MEL-2 = tested on: SK-MEL-2
T47D = tested on: T47D
CCRF-CEM = tested on: CCRF-CEM
UACC-257 = tested on: UACC-257
IGROV-1 = tested on: IGROV-1
MDA-MB-231 = tested on: MDA-MB-231
CAKI-1 = tested on: CAKI-1
NCI/ADR-RES = tested on: NCI/ADR-RES

Compound	GI50 (LOX IMVI)	GI50 (OVCAR-3)	GI50 (UACC-62)	GI50 (COLO 205)	GI50 (OVCAR-5)	GI50 (TK-10)	GI50 (HCC 2998)	GI50 (HL-60)	GI50 (SF-268)	GI50 (MDA-MB-435)	GI50 (HOP-62)	GI50 (M14)	GI50 (SK-MEL-2)	GI50 (T47D)	GI50 (CCRF-CEM)	GI50 (UACC-257)	GI50 (IGROV-1)	GI50 (MDA-MB-231)	GI50 (CAKI-1)	GI50 (NCI/ADR-RES)
Cc1nn(C(=O)c2ccc(Cl)cc2)c2c1C(c1ccco1)SC(=N)N2 (stereo not drawn)	> 10 µM (inactive)	> 10 µM (inactive)	> 10 µM (inactive)	> 10 µM (inactive)	> 10 µM (inactive)	> 10 µM (inactive)	> 10 µM (inactive)	> 10 µM (inactive)	> 10 µM (inactive)	> 10 µM (inactive)	> 10 µM (inactive)	> 10 µM (inactive)	> 10 µM (inactive)	> 10 µM (inactive)	> 10 µM (inactive)	> 10 µM (inactive)	> 10 µM (inactive)	> 10 µM (inactive)	> 10 µM (inactive)	> 10 µM (inactive)
COc1ccc(-c2c3c(n(C4OC(CO)C(O)C(O)C4O)c(=S)c2C#N)CC(C)(C)CC3=O)cc1 (stereo not drawn)	> 100 µM (inactive)	> 100 µM (inactive)	97.3 µM (inactive)	> 100 µM (inactive)	> 100 µM (inactive)	> 100 µM (inactive)	> 100 µM (inactive)	> 100 µM (inactive)	> 100 µM (inactive)	> 100 µM (inactive)	> 100 µM (inactive)	> 100 µM (inactive)	> 100 µM (inactive)	13.8 µM (inactive)	> 100 µM (inactive)	> 100 µM (inactive)	> 100 µM (inactive)	> 100 µM (inactive)	> 100 µM (inactive)	> 100 µM (inactive)
Clc1ccc2c(c1)N(CCCN1CCCC13CCCCC3)c1ccccc1S2	12.4 µM (inactive)	14.1 µM (inactive)	16.6 µM (inactive)	> 39.2 µM (inactive)	17.3 µM (inactive)	14.5 µM (inactive)	3.08 µM (inactive)	0.152 µM (active)	18.8 µM (inactive)	14.2 µM (inactive)	16.3 µM (inactive)	13.6 µM (inactive)	9.77 µM (inactive)	11.9 µM (inactive)	4.06 µM (inactive)	10.3 µM (inactive)	12.3 µM (inactive)	8.85 µM (inactive)	24.2 µM (inactive)	14.7 µM (inactive)
N#CC1=C(N)OC(c2ccc([N+](=O)[O-])cc2)C1(C#N)C#N (stereo not drawn)	8.49 µM (inactive)	> 10 µM (inactive)	8.71 µM (inactive)	5.94 µM (inactive)	18.7 µM (inactive)	13.2 µM (inactive)	9.46 µM (inactive)	3.46 µM (inactive)	23.3 µM (inactive)	17 µM (inactive)	20.7 µM (inactive)	16.7 µM (inactive)	14.6 µM (inactive)	18.4 µM (inactive)	2.57 µM (inactive)	13.1 µM (inactive)	15.6 µM (inactive)	16.4 µM (inactive)	0.785 µM (active)	19.6 µM (inactive)
COc1ccc2nc(N/N=C/C(C)=N/Nc3cc(C)c4cc(OC)ccc4n3)cc(C)c2c1	22.6 µM (inactive)	26.5 µM (inactive)	30.8 µM (inactive)	23.2 µM (inactive)	27.4 µM (inactive)	30.5 µM (inactive)	20.1 µM (inactive)	18.5 µM (inactive)	25.6 µM (inactive)	29 µM (inactive)	28.6 µM (inactive)	39.1 µM (inactive)	> 68.1 µM (inactive)	29.8 µM (inactive)	2.47 µM (inactive)	58.5 µM (inactive)	21 µM (inactive)	19 µM (inactive)	49.4 µM (inactive)	22 µM (inactive)
O=C1NN(c2ccccc2)C(=O)C2C3c4ccccc4C(c4ccccc43)C12 (stereo not drawn)	> 100 µM (inactive)	> 100 µM (inactive)	> 100 µM (inactive)	78.2 µM (inactive)	> 10 µM (inactive)	> 100 µM (inactive)	6.64 µM (inactive)	> 10 µM (inactive)	> 100 µM (inactive)	> 100 µM (inactive)	56.8 µM (inactive)	> 100 µM (inactive)	> 100 µM (inactive)	44.4 µM (inactive)	22.5 µM (inactive)	27.6 µM (inactive)	> 100 µM (inactive)	41 µM (inactive)	> 100 µM (inactive)	> 100 µM (inactive)
Cc1nc2ccc([N+](=O)[O-])cc2c(=O)n1C(=S)Nc1cccc(Cl)c1	12.9 µM (inactive)	12.3 µM (inactive)	12.5 µM (inactive)	14 µM (inactive)	28.2 µM (inactive)	23.8 µM (inactive)	9.02 µM (inactive)	14.2 µM (inactive)	16.8 µM (inactive)	17.7 µM (inactive)	19.2 µM (inactive)	21.9 µM (inactive)	6.18 µM (inactive)	7.53 µM (inactive)	12.9 µM (inactive)	17.3 µM (inactive)	–	15.5 µM (inactive)	18.1 µM (inactive)	19.4 µM (inactive)
COC(=O)/C=C/c1ccc2c(c1)[C@H](C(=O)OC)[C@@H](c1ccc(O)cc1)O2	18 µM (inactive)	8.91 µM (inactive)	20 µM (inactive)	25.2 µM (inactive)	> 100 µM (inactive)	41.4 µM (inactive)	10.9 µM (inactive)	6.27 µM (inactive)	30.3 µM (inactive)	3.32 µM (inactive)	35.8 µM (inactive)	10.5 µM (inactive)	4.62 µM (inactive)	28.1 µM (inactive)	9.06 µM (inactive)	32.5 µM (inactive)	27.4 µM (inactive)	14.8 µM (inactive)	45.3 µM (inactive)	32.3 µM (inactive)
CSc1nc(NC2OC(COC(C)=O)C(OC(C)=O)C(OC(C)=O)C2OC(C)=O)c(/N=C\C=N/c2c(NC3OC(COC(C)=O)C(OC(C)=O)C(OC(C)=O)C3OC(C)=O)nc(SC)n(C)c2=O)c(=O)n1C (stereo not drawn)	> 95.3 µM (inactive)	> 15.5 µM (inactive)	> 94.8 µM (inactive)	> 100 µM (inactive)	> 100 µM (inactive)	45.9 µM (inactive)	> 100 µM (inactive)	> 100 µM (inactive)	62.1 µM (inactive)	> 100 µM (inactive)	4.32 µM (inactive)	> 4.65 µM (inactive)	32.7 µM (inactive)	96.8 µM (inactive)	> 100 µM (inactive)	> 100 µM (inactive)	65.8 µM (inactive)	49.3 µM (inactive)	> 7.23 µM (inactive)	> 100 µM (inactive)
O=C(O)c1ccccc1CC1Cc2ccccc2C1	> 100 µM (inactive)	> 100 µM (inactive)	> 100 µM (inactive)	> 100 µM (inactive)	> 100 µM (inactive)	> 100 µM (inactive)	> 100 µM (inactive)	> 100 µM (inactive)	> 100 µM (inactive)	> 100 µM (inactive)	> 100 µM (inactive)	> 100 µM (inactive)	> 100 µM (inactive)	> 100 µM (inactive)	> 100 µM (inactive)	> 100 µM (inactive)	> 100 µM (inactive)	> 100 µM (inactive)	> 100 µM (inactive)	> 100 µM (inactive)
Cc1ccc(/N=C2/SC(c3ccc(C)cc3)(c3ccc(C)cc3)c3ccccc32)cc1	> 100 µM (inactive)	> 100 µM (inactive)	> 100 µM (inactive)	> 100 µM (inactive)	> 100 µM (inactive)	> 100 µM (inactive)	> 100 µM (inactive)	> 100 µM (inactive)	> 100 µM (inactive)	> 100 µM (inactive)	> 100 µM (inactive)	> 100 µM (inactive)	> 100 µM (inactive)	> 100 µM (inactive)	> 100 µM (inactive)	> 100 µM (inactive)	> 100 µM (inactive)	> 100 µM (inactive)	> 100 µM (inactive)	> 100 µM (inactive)
O=C1C(=O)N(c2cccc(C(F)(F)F)c2)C(=O)C(=O)C1c1nc2ccccc2s1	68.9 µM (inactive)	48.6 µM (inactive)	> 100 µM (inactive)	> 100 µM (inactive)	> 100 µM (inactive)	> 90.8 µM (inactive)	99.5 µM (inactive)	31.8 µM (inactive)	98.2 µM (inactive)	> 100 µM (inactive)	64.9 µM (inactive)	98.2 µM (inactive)	> 100 µM (inactive)	> 100 µM (inactive)	24.5 µM (inactive)	> 92 µM (inactive)	> 81.7 µM (inactive)	73.6 µM (inactive)	> 100 µM (inactive)	45.2 µM (inactive)
Cc1cccc(/N=N/C(=N\NC(=O)c2cc(Cl)ccc2O)c2ccc(N(CCC#N)CCC#N)cc2C)c1	31 µM (inactive)	18.5 µM (inactive)	24 µM (inactive)	13.6 µM (inactive)	64.9 µM (inactive)	20 µM (inactive)	28.5 µM (inactive)	14.3 µM (inactive)	30.1 µM (inactive)	47.1 µM (inactive)	28.2 µM (inactive)	45.5 µM (inactive)	29 µM (inactive)	22.9 µM (inactive)	8.79 µM (inactive)	30.7 µM (inactive)	14.6 µM (inactive)	21.2 µM (inactive)	30.6 µM (inactive)	45.1 µM (inactive)
COC(=O)c1cc2c(cc1CC1Cc3cc4c(cc3C1)CCC4)CCC2	24.3 µM (inactive)	38.6 µM (inactive)	–	40.5 µM (inactive)	43.5 µM (inactive)	> 100 µM (inactive)	22.6 µM (inactive)	15.3 µM (inactive)	56.9 µM (inactive)	42.6 µM (inactive)	> 100 µM (inactive)	63.8 µM (inactive)	24.3 µM (inactive)	37.5 µM (inactive)	16.9 µM (inactive)	25.8 µM (inactive)	53 µM (inactive)	77.3 µM (inactive)	90.6 µM (inactive)	> 100 µM (inactive)
